# US8871713B2, “Formulations of growth hormone releasing factor (GRF) molecules with improved stability” (Theratechnologies Inc., priority 2013, dated 2014)
# Entries after “also recorded” stand apart in the source; their conditions may differ. *1 amine or outer side, *2 acyl side, *3 side chain or, on linkers, in order; H or OH if unused. [ ]: non-standard residue; d: D form. The star is where a group is joined. βAsp = O=C(O)[C@H](CC(=O)[*:2])N[*:1]; Hexenoyl(3E) = CC/C=C/CC(=O)*
# Tests used:
# [1] = target: T1, human GRF receptor (Homo sapiens, UniProt Q02643); assay: Reporter gene assay in BHK cells (cAMP-inducible alkaline phosphatase); assay type: cell-based; settings: for Emax / SNR (signal to noise ratio) / EC50: 24 h; for EC50: peptides 10^-5 M to 10^-12 M
# T1 construct: expressed in transfected cells
# T1 sequence (Q02643 23-423): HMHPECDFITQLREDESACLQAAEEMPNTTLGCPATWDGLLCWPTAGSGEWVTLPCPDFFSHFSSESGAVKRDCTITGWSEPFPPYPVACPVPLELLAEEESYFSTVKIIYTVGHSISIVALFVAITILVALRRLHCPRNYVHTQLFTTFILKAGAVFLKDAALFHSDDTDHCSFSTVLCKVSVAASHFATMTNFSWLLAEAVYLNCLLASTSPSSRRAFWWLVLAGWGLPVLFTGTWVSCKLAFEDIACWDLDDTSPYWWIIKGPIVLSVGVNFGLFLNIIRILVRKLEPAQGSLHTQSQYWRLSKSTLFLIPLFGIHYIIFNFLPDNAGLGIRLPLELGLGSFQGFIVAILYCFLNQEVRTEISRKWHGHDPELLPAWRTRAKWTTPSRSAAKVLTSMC
# Protocol: BHK cells stably transfected with the human GRF receptor and an alkaline phosphatase reporter gene were plated in 96-well plates at 5×10^4 cells/well and incubated overnight. The next day, cells were washed twice with PBS and maintained for 10-30 min. in assay buffer (DMEM without phenol red, 20 mM HEPES and 1% heat-inactivated fetal bovine serum (FBS)). Peptides from 10^−5 M to 10^−12 M were added to the cells and incubated for 24 h. The alkaline phosphatase level in the culture supernatants were performed using the Alkaline Phosphatase detection kit from Invitrogen® (cat. #T1017).
# [2] = system: GH secretion; assay: GH response in female Sprague-Dawley rats (plasma GH ELISA); assay type: in vivo, rat; settings: for GH secretion in rats (in words) / AUC(0-60min) of GH / TMAX of GH / AUC(0-60 min) of GH, fold lower than TH9507 / Cmax of GH, fold lower than TH9507: female rats; for GH secretion in rats (in words) / AUC(0-60 min) of GH, fold lower than TH9507 / Cmax of GH, fold lower than TH9507: 10 μg/rat; for AUC(0-60min) of GH / TMAX of GH: 10 μg/rat subcutaneous, 5% mannitol
# Protocol: The reporter gene assay was performed on baby hamster kidney (BHK) cells stably expressing the human GRF receptor and a cAMP-inducible alkaline phosphatase reporter gene; the peptides were tested at concentrations from 1 pM to 10 μM. Acute GH response was measured in blood samples obtained from female rats that were injected with 10 μg/rat peptides in 5% mannitol.
# Sprague-Dawley rats (female, 250-300 g) were obtained from Charles River Inc. The animals were kept in groups of 4 rats per cage and were maintained on standard laboratory chow in 12:12 light:dark cycle.
# On the day of the experiment, the animals were anesthetized with 2.5% isoflurane. A mid-section opening was made in the neck to expose the carotid artery. The carotid artery was cannulated with polypropylene tube (PE-50) for blood withdrawal. The rats were subcutaneously injected with the peptides (10 μg/rat) dissolved in formulation 5 (20 mM Sodium Acetate, 5% D-mannitol pH 5 (adjusted with AcOH). Blood samples (400 μL) were collected at pre-dose and at 5, 10, 15, 30 and 60 minutes after the injection into microtainer tubes containing K3EDTA and 25 μl of acidified Hank's buffered salt solution (AHBSS). The samples were immediately centrifuged in a microfuge for 2 minutes and the plasma was collected into screwcap Eppendorf™ tubes and quickly frozen in liquid nitrogen. The samples were kept at −80° C.
# Rat plasma samples were thawed on ice, vortexed briefly to mix the contents and centrifuged at 9,000 RPM for 2 min at 4° C. GH levels were determined using the Rat/Mouse Growth Hormone ELISA kit from Millipore® (Cat. #EZRMGH-45K). Samples were diluted 10-fold with the assay buffer and 10 μl of the diluted samples were added along with 90 μl of assay buffer to the ELISA plate. The remainder of the assay was performed according to the manufacturer's protocol.
# The standard curve was plotted using the 4-parameter logistic equation using GraphPad Prism™ software and was used to determine the GH concentration of plasma samples. The data were analyzed using one-way analysis of variance. Bonferroni's test was used to make comparisons among different treatments.
# [3] = Formation of TH0601 from TH05111 or tesamorelin with and without HP-β-CD (FIG. 19); assay type: physicochemical; settings: 8 mg/mL peptide, 10% HP-β-CD vs 5% mannitol, pH 6
# Protocol: Isomerization of Asp^8 in the structure of TH05111 leads to formation of the tesamorelin degradant TH0601, which makes it possible to monitor degradation by using the same chromatographic conditions as for tesamorelin.
# The comparison of the kinetics of TH0601 formation in the solutions containing 8 mg/mL of TH05111 or tesamorelin with and without HP-β-CD is shown in FIG. 19.
Molecule,EC50 fold higher than TH9507 [1] [fold],Emax [1] [%],SNR (signal to noise ratio) [1],GH secretion in rats (in words) [2],AUC(0-60min) of GH [2] [ng·min/mL],TMAX of GH [2] [min],In vitro potency compared to TH9507 (in words) [1],EC50 [1] [nM],"AUC(0-60 min) of GH, fold lower than TH9507 [2] [fold]","Cmax of GH, fold lower than TH9507 [2] [fold]",Isomerization of the Asp^8 residue in the presence of HP-β-CD [3],"GH-releasing activity in vivo compared to parent molecule ([2]; relative to tesamorelin, FIG. 1) [%]"
"CC/C=C/CC(=O)N[C@@H](Cc1ccc(O)cc1)C(=O)N[C@@H](C)C(=O)N[C@@H](CC(=O)N[C@@H](C)C(=O)N[C@H](C(=O)N[C@@H](Cc1ccccc1)C(=O)N[C@H](C(=O)N[C@@H](CC(N)=O)C(=O)N[C@@H](CO)C(=O)N[C@@H](Cc1ccc(O)cc1)C(=O)N[C@@H](CCCNC(=N)N)C(=O)N[C@@H](CCCCN)C(=O)N[C@H](C(=O)N[C@@H](CC(C)C)C(=O)NCC(=O)N[C@@H](CCC(N)=O)C(=O)N[C@@H](CC(C)C)C(=O)N[C@@H](CO)C(=O)N[C@@H](C)C(=O)N[C@@H](CCCNC(=N)N)C(=O)N[C@@H](CCCCN)C(=O)N[C@@H](CC(C)C)C(=O)N[C@@H](CC(C)C)C(=O)N[C@@H](CCC(N)=O)C(=O)N[C@@H](CC(=O)O)C(=O)N[C@H](C(=O)N[C@@H](CCSC)C(=O)N[C@@H](CO)C(=O)N[C@@H](CCCNC(=N)N)C(=O)N[C@@H](CCC(N)=O)C(=O)N[C@@H](CCC(N)=O)C(=O)NCC(=O)N[C@@H](CCC(=O)O)C(=O)N[C@@H](CO)C(=O)N[C@@H](CC(N)=O)C(=O)N[C@@H](CCC(N)=O)C(=O)N[C@@H](CCC(=O)O)C(=O)N[C@@H](CCCNC(=N)N)C(=O)NCC(=O)N[C@@H](C)C(=O)N[C@@H](CCCNC(=N)N)C(=O)N[C@@H](C)C(=O)N[C@@H](CCCNC(=N)N)C(=O)N[C@@H](CC(C)C)C(N)=O)[C@@H](C)CC)C(C)C)[C@@H](C)O)[C@@H](C)CC)C(=O)O [TH0677, β-Asp^3 tesamorelin]",71,116 ± 25.8,25.9,did not produce GH; also recorded: did not stimulate GH secretion; also recorded: biologically inactive,–,–,–,–,–,–,–,–
"CC/C=C/CC(=O)N[C@@H](Cc1ccc(O)cc1)C(=O)N[C@@H](C)C(=O)N[C@@H](CC(=O)O)C(=O)N[C@@H](C)C(=O)N[C@H](C(=O)N[C@@H](Cc1ccccc1)C(=O)N[C@H](C(=O)N[C@@H](CC(N)=O)C(=O)N[C@@H](CO)C(=O)N[C@@H](Cc1ccc(O)cc1)C(=O)N[C@@H](CCCNC(=N)N)C(=O)N[C@@H](CCCCN)C(=O)N[C@H](C(=O)N[C@@H](CC(C)C)C(=O)NCC(=O)N[C@@H](CCC(N)=O)C(=O)N[C@@H](CC(C)C)C(=O)N[C@@H](CO)C(=O)N[C@@H](C)C(=O)N[C@@H](CCCNC(=N)N)C(=O)N[C@@H](CCCCN)C(=O)N[C@@H](CC(C)C)C(=O)N[C@@H](CC(C)C)C(=O)N[C@@H](CCC(N)=O)C(=O)N[C@@H](CC(=O)O)C(=O)N[C@H](C(=O)N[C@@H](CCSC)C(=O)N[C@@H](CO)C(=O)N[C@@H](CCCNC(=N)N)C(=O)N[C@@H](CCC(N)=O)C(=O)N[C@@H](CCC(N)=O)C(=O)NCC(=O)N[C@@H](CCC(=O)O)C(=O)N[C@@H](CO)C(=O)N[C@@H](CC(N)=O)C(=O)N[C@@H](CCC(N)=O)C(=O)N[C@@H](CCC(=O)O)C(=O)N[C@@H](CCCNC(=N)N)C(=O)NCC(=O)N[C@@H](C)C(=O)N[C@@H](CCCNC(=N)N)C(=O)N[C@@H](C)C(=O)N[C@@H](CCCNC(=N)N)C(=O)N[C@@H](CC(C)C)C(N)=O)[C@@H](C)CC)C(C)C)[C@@H](C)O)[C@@H](C)CC [TH9507, [trans-3-hexenoyl]hGRF (1-44) amide]",–,100 ± 11.3,22.3,–,18953 ± 6317,10,–,–,–,–,–,–
"CC/C=C/CC(=O)N[C@@H](Cc1ccc(O)cc1)C(=O)N[C@@H](C)C(=O)N[C@H]1CC(=O)N([C@@H](C)C(=O)N[C@H](C(=O)N[C@@H](Cc2ccccc2)C(=O)N[C@H](C(=O)N[C@@H](CC(N)=O)C(=O)N[C@@H](CO)C(=O)N[C@@H](Cc2ccc(O)cc2)C(=O)N[C@@H](CCCNC(=N)N)C(=O)N[C@@H](CCCCN)C(=O)N[C@H](C(=O)N[C@@H](CC(C)C)C(=O)NCC(=O)N[C@@H](CCC(N)=O)C(=O)N[C@@H](CC(C)C)C(=O)N[C@@H](CO)C(=O)N[C@@H](C)C(=O)N[C@@H](CCCNC(=N)N)C(=O)N[C@@H](CCCCN)C(=O)N[C@@H](CC(C)C)C(=O)N[C@@H](CC(C)C)C(=O)N[C@@H](CCC(N)=O)C(=O)N[C@@H](CC(=O)O)C(=O)N[C@H](C(=O)N[C@@H](CCSC)C(=O)N[C@@H](CO)C(=O)N[C@@H](CCCNC(=N)N)C(=O)N[C@@H](CCC(N)=O)C(=O)N[C@@H](CCC(N)=O)C(=O)NCC(=O)N[C@@H](CCC(=O)O)C(=O)N[C@@H](CO)C(=O)N[C@@H](CC(N)=O)C(=O)N[C@@H](CCC(N)=O)C(=O)N[C@@H](CCC(=O)O)C(=O)N[C@@H](CCCNC(=N)N)C(=O)NCC(=O)N[C@@H](C)C(=O)N[C@@H](CCCNC(=N)N)C(=O)N[C@@H](C)C(=O)N[C@@H](CCCNC(=N)N)C(=O)N[C@@H](CC(C)C)C(N)=O)[C@@H](C)CC)C(C)C)[C@@H](C)O)[C@@H](C)CC)C1=O [TH1063, Asu^3 tesamorelin]",–,95.7 ± 8.1,–,–,–,–,–,–,–,–,–,–
"CC/C=C/CC(=O)N[C@@H](Cc1ccc(O)cc1)C(=O)N[C@@H](C)C(=O)N[C@@H](CC(=O)O)C(=O)N[C@@H](C)C(=O)N[C@H](C(=O)N[C@@H](Cc1ccccc1)C(=O)N[C@H](C(=O)N[C@@H](CC(N)=O)C(=O)N[C@@H](CO)C(=O)N[C@@H](Cc1ccc(O)cc1)C(=O)N[C@@H](CCCNC(=N)N)C(=O)N[C@@H](CCCCN)C(=O)N[C@H](C(=O)N[C@@H](CC(C)C)C(=O)NCC(=O)N[C@@H](CCC(N)=O)C(=O)N[C@@H](CC(C)C)C(=O)N[C@@H](CO)C(=O)N[C@@H](C)C(=O)N[C@@H](CCCNC(=N)N)C(=O)N[C@@H](CCCCN)C(=O)N[C@@H](CC(C)C)C(=O)N[C@@H](CC(C)C)C(=O)N[C@@H](CCC(N)=O)C(=O)N[C@@H](CC(=O)O)C(=O)N[C@H](C(=O)N[C@@H](CC[S+](C)[O-])C(=O)N[C@@H](CO)C(=O)N[C@@H](CCCNC(=N)N)C(=O)N[C@@H](CCC(N)=O)C(=O)N[C@@H](CCC(N)=O)C(=O)NCC(=O)N[C@@H](CCC(=O)O)C(=O)N[C@@H](CO)C(=O)N[C@@H](CC(N)=O)C(=O)N[C@@H](CCC(N)=O)C(=O)N[C@@H](CCC(=O)O)C(=O)N[C@@H](CCCNC(=N)N)C(=O)NCC(=O)N[C@@H](C)C(=O)N[C@@H](CCCNC(=N)N)C(=O)N[C@@H](C)C(=O)N[C@@H](CCCNC(=N)N)C(=O)N[C@@H](CC(C)C)C(N)=O)[C@@H](C)CC)C(C)C)[C@@H](C)O)[C@@H](C)CC (some centres unmarked) [TH0286, N-Hex-hGRF[1-44]Met[O]27 amide]",–,–,–,not significantly different,14751 ± 5745,10,comparable to TH9507,–,–,–,–,–
"{Hexenoyl(3E)}-YADAIFT[βAsp]SYRKVLGQLSARKLLQDIMSRQQGESNQERGARARL-NH2 [TH0601, β-Asp^8 tesamorelin]",500,120 ± 23.5,26.9,biologically inactive,1533 ± 734,5,–,30 ± 30.4,12.4,14.0,–,–
"{Hexenoyl(3E)}-YADAIFTDSYRKVLGQLSARKLLQDIMSRQQGESNQERGARARL-NH2 [TH05111, Asp^8 tesamorelin]",–,114 ± 17,25.3,–,6540 ± 2647,5,comparable to TH9507; also recorded: equipotent,0.08 ± 0.02,2.9,2.2,facilitated,~30
